The nature of data set [1]: MTT cytotoxicity assay, SK-BR-3. In kind it is cell-based, human. To be noted: human, read-out: SCI (selective cytotoxicity index). In general terms: Formazan colour is commonly taken as a measure of viable cells.
Data set [2] concerns SK-BR-3 human breast adenocarcinoma. The data set can be described thus: MTT cytotoxicity assay, SK-BR-3. The settings on record: Homo sapiens; for CC50: SK-BR-3, 72 h, SK-BR-3, 72 h incubation, MTT; for viability at 100 µM: SK-BR-3, 1 × 10^–4 M, mean ± SD (n = 3), read-out: Cell viability. In kind it is cell-based.
Data set [3] is described as follows: MTT cytotoxicity assay, Jurkat. In kind it is cell-based, human. The settings on record: human, read-out: SCI (selective cytotoxicity index).
The subject of data set [4] is Jurkat human acute T-lymphoblastic leukemia. As to the kind of experiment: MTT cytotoxicity assay, Jurkat. The class given is cell-based. To be noted: Homo sapiens, Jurkat; for CC50: 72 h, 72 h incubation, MTT; for viability at 100 µM: 1 × 10^–4 M, mean ± SD (n = 3), read-out: Cell viability.
In data set [5] the test system is herpes simplex virus type 1 (HSV-1), including acyclovir-resistant HSV-1 strain. Also on record: method as in doi:10.1002/ejoc.201900727, doi:10.1515/pac-2019-1214, doi:10.1007/s10593-021-02929-z. The settings on record: HSV-1 including acyclovir-resistant strain; cited from earlier work.
A short description of data set [6]: Solubility in aqueous media. The class given is physicochemical. To be noted: result in words.
Where [7] appears, read: CC50 of WI-38 divided by CC50 of SK-BR-3 (Table 1).
The mark [8] stands for this setting: CC50 of WI-38 divided by CC50 of Jurkat (Table 1).

The source of these data is paper PMC9962735, “Synthesis and Cytotoxic Activity of the Derivatives of N-(Purin-6-yl)aminopolymethylene Carboxylic Acids and Related Compounds” (Molecules, 2023).

For the molecule `CC1COc2c(ccc(F)c2F)N1C(=O)CCCCCCCNc1ncnc2[nH]cnc12` (stereo not drawn) [Compound 1c], the results for the selectivity ratio at 72 h in data set [1] (setting [7]) and in data set [3] (setting [8]) were 0.67 and 5.9, respectively. Moreover, the results for the CC50 in data set [2] (n = 3 (Table 1)) and in data set [4] (n = 3 (Table 1)) were 75 µM and 8.5 µM, respectively. Moreover, the viability – broadly, a read-out of living cells in per cent, often relative to untreated cells – at 100 µM in data set [2] worked out at 8%; in data set [4], 8 ± 2%. In addition, the “antiviral activity in vitro against HSV-1” value in data set [5] is recorded as “high antiviral activity”.
Take `CC1COc2c(ccc(F)c2F)N1C(=O)CCCCCCCCCCNc1ncnc2[nH]cnc12` (stereo not drawn) [Compound 1d]: the selectivity ratio at 72 h in data set [1] (setting [7]) turned out to be 0.28; in data set [1] (CC50 of WI-38 divided by CC50 of SK-BR-3 (Table 3)) it was 0.75; in data set [3] (setting [8]), 2.5; in data set [3] (CC50 of WI-38 divided by CC50 of Jurkat (Table 3)), 2.1. The CC50 (in general, the concentration at which the toxic effect on the cells reaches its halfway point) in data set [2] (n = 3 (Table 1)) came out at 75 µM; in data set [2] (n = 3 (Table 3)), 28 µM; in data set [4] (n = 3 (Table 1)), 8.5 µM; in data set [4] (n = 3 (Table 3)), 10 µM. For the same molecule, the viability at 100 µM came out at 8 ± 2% in data set [2] and 10 ± 4% in data set [4]. The “solubility in aqueous media” value in data set [6] is “low solubility in aqueous media”.
